Key:
[1] = tested on: U937 (BCR-ABL-) cells; assay: CCK-8 proliferation inhibition, U937 cells; format: cell-based, human; conditions: Homo sapiens, U-937; CCK-8, 48 hours of drug treatment, highest concentration 10 μM; read-out: Proliferative inhibitory activity (IC50, nM) U937 (BCR-ABL-);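 further: Ten-point threefold dilution series, absorbance at 450 nm after 2 h with CCK-8 reagent, DMSO as negative control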
[2] = tested on: K562 (BCR-ABL+) cells; assay: CCK-8 proliferation inhibition, K562 cells; format: cell-based, human; conditions: Homo sapiens, K562, 48 h, CCK-8, 48 hours of drug treatment; read-out: Proliferative inhibitory activity (IC50, nM) K562 (BCR-ABL+);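 further: Ten-point threefold dilution series starting at 10 µM, absorbance at 450 nm after 2 h with CCK-8, DMSO as negative control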
[3] = molecular target: c-ABL protein (Homo sapiens, UniProt P00519); assay: Western blot degradation of c-ABL in K562 cells; format: cell-based; parameters: Western blot was used to detect the expression of BCR-ABL and c-ABL protein in K562 cells; endogenous in cells; host or cells: K562; conditions: 16 hours, 1 nM-10 μM
How it was run: (§1)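 Lysates were normalized by Bradford and run on SDS-PAGE with nitrocellulose transfer. DC50 was derived from band intensities by non-linear regression.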

[4] = molecular target: BCR-ABL protein (Homo sapiens, UniProt P00519); assay: Western blot degradation of BCR-ABL in K562 cells; format: cell-based; parameters: Western blot was used to detect the expression of BCR-ABL and c-ABL protein in K562 cells; BCR (fusion partner, P11274); endogenous in cells; host or cells: K562; the other entry of the earlier key: BCR (P11274, Breakpoint cluster region protein); conditions: 16 hours, 1 nM-10 μM
How it was run: as §1

[5] = tested on: HEK293 (BCR-ABL-) cells; assay: CCK-8 proliferation inhibition, HEK293 cells; conditions: Homo sapiens, HEK293, 48 h, read-out: Proliferative inhibitory activity (IC50, nM) HEK293 (BCR-ABL-);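 further: Ten-point threefold dilution series starting at 10 µM, CCK-8 absorbance at 450 nm read after 2 h reagent incubation, DMSO-treated cells as negative control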

BCR-ABL protein, sequence (P00519 with tags, fused parts or gaps): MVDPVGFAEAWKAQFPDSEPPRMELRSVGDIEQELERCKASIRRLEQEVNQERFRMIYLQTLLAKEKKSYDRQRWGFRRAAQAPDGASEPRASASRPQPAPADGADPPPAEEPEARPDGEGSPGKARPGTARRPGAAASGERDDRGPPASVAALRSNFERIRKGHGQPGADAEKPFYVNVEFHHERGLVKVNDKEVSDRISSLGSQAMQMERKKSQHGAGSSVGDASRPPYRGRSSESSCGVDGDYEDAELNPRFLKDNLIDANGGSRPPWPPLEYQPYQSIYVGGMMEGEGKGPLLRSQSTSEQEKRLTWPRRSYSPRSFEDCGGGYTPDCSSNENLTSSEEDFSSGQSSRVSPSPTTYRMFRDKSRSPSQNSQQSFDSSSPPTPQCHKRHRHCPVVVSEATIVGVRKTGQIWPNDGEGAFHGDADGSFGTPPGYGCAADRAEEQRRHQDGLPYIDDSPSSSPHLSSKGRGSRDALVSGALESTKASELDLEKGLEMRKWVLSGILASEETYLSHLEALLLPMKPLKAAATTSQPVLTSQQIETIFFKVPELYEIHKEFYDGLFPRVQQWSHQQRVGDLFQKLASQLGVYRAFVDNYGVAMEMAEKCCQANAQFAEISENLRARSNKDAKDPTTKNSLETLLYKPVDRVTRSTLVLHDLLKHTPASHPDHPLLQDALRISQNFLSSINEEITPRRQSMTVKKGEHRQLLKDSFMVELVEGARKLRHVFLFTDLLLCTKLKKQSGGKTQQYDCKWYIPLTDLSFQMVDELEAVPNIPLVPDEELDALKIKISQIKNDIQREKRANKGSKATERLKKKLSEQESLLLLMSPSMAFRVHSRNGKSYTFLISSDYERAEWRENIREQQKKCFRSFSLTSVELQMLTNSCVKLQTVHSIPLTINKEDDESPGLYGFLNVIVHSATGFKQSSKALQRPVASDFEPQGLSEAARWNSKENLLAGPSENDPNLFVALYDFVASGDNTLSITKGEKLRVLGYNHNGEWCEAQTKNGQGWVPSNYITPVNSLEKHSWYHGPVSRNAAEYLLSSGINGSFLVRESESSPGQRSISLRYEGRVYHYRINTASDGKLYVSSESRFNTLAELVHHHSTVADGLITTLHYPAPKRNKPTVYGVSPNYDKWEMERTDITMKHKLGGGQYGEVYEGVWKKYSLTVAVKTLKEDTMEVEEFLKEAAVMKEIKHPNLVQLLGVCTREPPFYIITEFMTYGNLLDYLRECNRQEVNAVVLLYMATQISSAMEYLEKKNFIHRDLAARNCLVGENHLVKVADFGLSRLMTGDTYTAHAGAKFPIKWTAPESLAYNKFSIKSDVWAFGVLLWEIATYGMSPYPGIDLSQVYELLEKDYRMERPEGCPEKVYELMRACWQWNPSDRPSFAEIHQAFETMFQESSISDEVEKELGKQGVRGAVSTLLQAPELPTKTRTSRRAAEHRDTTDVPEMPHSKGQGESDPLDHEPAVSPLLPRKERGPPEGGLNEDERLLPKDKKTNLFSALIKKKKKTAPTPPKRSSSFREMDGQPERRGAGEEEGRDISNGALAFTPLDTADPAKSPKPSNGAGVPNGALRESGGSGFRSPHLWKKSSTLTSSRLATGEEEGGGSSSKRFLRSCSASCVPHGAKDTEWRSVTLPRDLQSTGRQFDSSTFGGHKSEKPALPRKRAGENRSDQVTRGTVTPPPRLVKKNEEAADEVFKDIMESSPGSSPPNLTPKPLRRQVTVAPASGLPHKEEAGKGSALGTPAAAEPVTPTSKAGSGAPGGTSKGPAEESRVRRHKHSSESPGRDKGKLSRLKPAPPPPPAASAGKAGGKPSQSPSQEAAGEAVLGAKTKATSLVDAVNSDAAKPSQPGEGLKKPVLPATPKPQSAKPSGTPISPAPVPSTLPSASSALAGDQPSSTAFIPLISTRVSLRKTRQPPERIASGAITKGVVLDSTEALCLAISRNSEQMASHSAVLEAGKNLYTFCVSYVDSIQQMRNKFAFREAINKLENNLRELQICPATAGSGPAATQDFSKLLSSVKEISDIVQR
c-ABL protein, sequence (P00519 whole entry): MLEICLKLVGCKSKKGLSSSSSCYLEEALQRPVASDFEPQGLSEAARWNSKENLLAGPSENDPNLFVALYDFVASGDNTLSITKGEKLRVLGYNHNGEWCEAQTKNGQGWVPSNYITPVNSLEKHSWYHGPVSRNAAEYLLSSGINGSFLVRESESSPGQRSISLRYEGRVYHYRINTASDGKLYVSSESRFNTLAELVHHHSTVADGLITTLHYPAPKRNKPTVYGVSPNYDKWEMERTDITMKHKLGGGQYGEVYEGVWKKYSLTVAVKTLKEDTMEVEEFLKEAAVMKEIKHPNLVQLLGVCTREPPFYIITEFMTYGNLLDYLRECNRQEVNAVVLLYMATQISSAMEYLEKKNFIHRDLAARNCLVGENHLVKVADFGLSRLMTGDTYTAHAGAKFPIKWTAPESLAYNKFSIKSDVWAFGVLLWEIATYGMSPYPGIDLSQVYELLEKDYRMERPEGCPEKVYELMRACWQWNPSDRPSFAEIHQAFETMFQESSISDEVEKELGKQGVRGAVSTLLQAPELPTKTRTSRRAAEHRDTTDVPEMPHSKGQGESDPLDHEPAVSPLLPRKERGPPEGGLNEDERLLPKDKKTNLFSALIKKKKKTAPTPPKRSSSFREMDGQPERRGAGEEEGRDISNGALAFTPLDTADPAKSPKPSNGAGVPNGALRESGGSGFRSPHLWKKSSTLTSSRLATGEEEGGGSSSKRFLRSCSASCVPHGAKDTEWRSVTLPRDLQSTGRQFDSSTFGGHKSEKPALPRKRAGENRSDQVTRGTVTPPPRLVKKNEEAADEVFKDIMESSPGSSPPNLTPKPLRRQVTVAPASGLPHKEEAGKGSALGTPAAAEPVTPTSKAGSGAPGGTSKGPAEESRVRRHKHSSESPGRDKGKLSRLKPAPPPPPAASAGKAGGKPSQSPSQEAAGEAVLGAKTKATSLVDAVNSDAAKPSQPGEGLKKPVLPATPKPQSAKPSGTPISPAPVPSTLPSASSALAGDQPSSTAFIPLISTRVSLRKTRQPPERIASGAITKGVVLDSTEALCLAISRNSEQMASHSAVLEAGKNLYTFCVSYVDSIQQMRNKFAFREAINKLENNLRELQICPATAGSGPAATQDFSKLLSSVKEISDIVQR

Row | Structure (SMILES) | IC50 [1] | IC50 [2] | DC50 [3] | DC50 [4] | IC50 [5]
1 | Cc1nc(Nc2ncc(C(=O)Nc3c(C)cccc3Cl)s2)cc(N2CCN(C(=O)CNc3cccc4c3C(=O)N(C3CCC(=O)NC3=O)C4=O)CC2)n1 (centres unmarked) [SIAIS151072, N-(2-chloro-6-methylphenyl)-2-((6-(4-((2-(2,6-dioxopiperidin-3-yl)-1,3-dioxoisoindolin-4-yl)glycyl)piperazin-1-yl)-2-methylpyrimidin-4-yl)amino)thiazole-5-carboxamide] | > 10000 nM | 1.22 nM | 1 to 10 nM | < 1 nM | > 10000 nM
2 | Cc1nc(Nc2ncc(C(=O)Nc3c(C)cccc3Cl)s2)cc(N2CCN(C(=O)CCc3cccc4c3C(=O)N(C3CCC(=O)NC3=O)C4=O)CC2)n1 (centres unmarked) [SIAIS172150, N-(2-chloro-6-methylphenyl)-2-((6-(4-(3-(2-(2,6-dioxopiperidin-3-yl)-1,3-dioxoisoindolin-4-yl)propanoyl)piperazin-1-yl)-2-methylpyrimidin-4-yl)amino)thiazole-5-carboxamide] | > 10000 nM | 2.84 nM | 10 to 100 nM | 10 to 100 nM | > 10000 nM
3 | COc1cc(Nc2c(C#N)cnc3cc(OCCCN4CCN(C(=O)CCOCCOCCNc5cccc6c5C(=O)N(C5CCC(=O)NC5=O)C6=O)CC4)c(OC)cc23)c(Cl)cc1Cl (centres unmarked) [SIAIS151158, 4-((2,4-dichloro-5-methoxyphenyl)amino)-7-(3-(4-(3-(2-(2-((2-(2,6-dioxopiperidin-3-yl)-1,3-dioxoisoindolin-4-yl)amino)ethoxy)ethoxy)propanoyl)piperazin-1-yl)propoxy)-6-methoxyquinoline-3-carbonitrile] | > 10000 nM | 3130 nM | 10 to 100 nM | 10 to 100 nM | > 10000 nM
4 | COc1cc(Nc2c(C#N)cnc3cc(OCCCN4CCN(C(=O)CCCCNc5cccc6c5C(=O)N(C5CCC(=O)NC5=O)C6=O)CC4)c(OC)cc23)c(Cl)cc1Cl (centres unmarked) [SIAIS151163, 4-((2,4-dichloro-5-methoxyphenyl)amino)-7-(3-(4-(5-((2-(2,6-dioxopiperidin-3-yl)-1,3-dioxoisoindolin-4-yl)amino)pentanoyl)piperazin-1-yl)propoxy)-6-methoxyquinoline-3-carbonitrile] | > 10000 nM | 126 nM | 10 to 100 nM | 10 to 100 nM | > 10000 nM
5 | Cc1nc(Nc2ncc(C(=O)Nc3c(C)cccc3Cl)s2)cc(N2CCN(C(=O)CCCCCNc3cccc4c3C(=O)N(C3CCC(=O)NC3=O)C4=O)CC2)n1 (centres unmarked) [SIAIS151075, N-(2-chloro-6-methylphenyl)-2-((6-(4-(6-((2-(2,6-dioxopiperidin-3-yl)-1,3-dioxoisoindolin-4-yl)amino)hexanoyl)piperazin-1-yl)-2-methylpyrimidin-4-yl)amino)thiazole-5-carboxamide] | > 10000 nM | 0.03 nM | 1 to 10 nM | 1 to 10 nM | > 10000 nM
6 | Cc1nc(Nc2ncc(C(=O)Nc3c(C)cccc3Cl)s2)cc(N2CCN(C(=O)CCCCNc3cccc4c3CN(C3CCC(=O)NC3=O)C4=O)CC2)n1 (centres unmarked) [SIAIS184052, N-(2-chloro-6-methylphenyl)-2-((6-(4-(5-((2-(2,6-dioxopiperidin-3-yl)-1-oxoisoindolin-4-yl)amino)pentanoyl)piperazin-1-yl)-2-methylpyrimidin-4-yl)amino)thiazole-5-carboxamide] | > 10000 nM | 4.2 nM | 10 to 100 nM | 1 to 10 nM | > 10000 nM
7 | Cc1nc(Nc2ncc(C(=O)Nc3c(C)cccc3Cl)s2)cc(N2CCN(C(=O)CCCNc3cccc4c3C(=O)N(C3CCC(=O)NC3=O)C4=O)CC2)n1 (centres unmarked) [SIAIS151070, N-(2-chloro-6-methylphenyl)-2-((6-(4-(4-((2-(2,6-dioxopiperidin-3-yl)-1,3-dioxoisoindolin-4-yl)amino)butanoyl)piperazin-1-yl)-2-methylpyrimidin-4-yl)amino)thiazole-5-carboxamide] | > 10000 nM | 5.5 nM | 1 to 10 nM | 1 to 10 nM | > 10000 nM
